The target in series [1] is T1, Platelet-derived growth factor receptor beta (Homo sapiens, UniProt P09619). Description: Inhibition of PDGFRbeta (unknown origin) at 100 nM by caliper mobility shift assay relative to control.
The nature of series [2]: Toxicity in BALB/c nude mouse xenograted with human MNNG/HOS cells assessed as kidney lesion at 30 mg/kg/day, po for 14 days by hematoxylin and eosin staining method. The class given is organism-based, HOS-TE85. The following applies: in vivo, 336 h, time 14 day.
For a further series, the system named is U2OS. Description: Antiproliferative activity against human U2OS cells assessed as reduction in cell viability incubated for 48 hrs by MTT assay.
Another series relates to MG-63. Description: Antiproliferative activity against human MG-63 cells assessed as reduction in cell viability incubated for 48 hrs by MTT assay. The following applies: MG-63, 48 h. A general note: Formazan colour is commonly taken as a measure of viable cells.
In the next series the test system is HOS-TE85. Description: Antiproliferative activity against human MNNG/HOS cells assessed as reduction in cell viability incubated for 48 hrs by MTT assay. The following applies: HOS-TE85, 48 h.
For the next series, the system named is SAOS-2. Description: Antiproliferative activity against human SAOS-2 cells assessed as reduction in cell viability incubated for 48 hrs by MTT assay. The note with it: SAOS-2, 48 h.
In series [3] the target is T1, Platelet-derived growth factor receptor beta. Description: Inhibition of PDGFRbeta (unknown origin) by caliper mobility shift assay.
Series [4] addresses Platelet-derived growth factor receptor alpha (Homo sapiens, UniProt P16234). The following applies: dose 100.0 nM.
Description: Inhibition of PDGFRalpha (unknown origin) at 100 nM by caliper mobility shift assay relative to control

The values below come from ChEMBL document CHEMBL5154776, “Discovery of Potent and Orally Bioavailable Platelet-Derived Growth Factor Receptor (PDGFR) Inhibitors for the Treatment of Osteosarcoma” (J Med Chem, 2022).

The inhibition is the drop in the measured response relative to a control, in per cent. One may read the pIC50 as −log10 of the IC50, conventionally taken in molar units.

Structures are written as SMILES. pIC50: −log10 of the molar value.

T1 sequence (P09619 whole entry): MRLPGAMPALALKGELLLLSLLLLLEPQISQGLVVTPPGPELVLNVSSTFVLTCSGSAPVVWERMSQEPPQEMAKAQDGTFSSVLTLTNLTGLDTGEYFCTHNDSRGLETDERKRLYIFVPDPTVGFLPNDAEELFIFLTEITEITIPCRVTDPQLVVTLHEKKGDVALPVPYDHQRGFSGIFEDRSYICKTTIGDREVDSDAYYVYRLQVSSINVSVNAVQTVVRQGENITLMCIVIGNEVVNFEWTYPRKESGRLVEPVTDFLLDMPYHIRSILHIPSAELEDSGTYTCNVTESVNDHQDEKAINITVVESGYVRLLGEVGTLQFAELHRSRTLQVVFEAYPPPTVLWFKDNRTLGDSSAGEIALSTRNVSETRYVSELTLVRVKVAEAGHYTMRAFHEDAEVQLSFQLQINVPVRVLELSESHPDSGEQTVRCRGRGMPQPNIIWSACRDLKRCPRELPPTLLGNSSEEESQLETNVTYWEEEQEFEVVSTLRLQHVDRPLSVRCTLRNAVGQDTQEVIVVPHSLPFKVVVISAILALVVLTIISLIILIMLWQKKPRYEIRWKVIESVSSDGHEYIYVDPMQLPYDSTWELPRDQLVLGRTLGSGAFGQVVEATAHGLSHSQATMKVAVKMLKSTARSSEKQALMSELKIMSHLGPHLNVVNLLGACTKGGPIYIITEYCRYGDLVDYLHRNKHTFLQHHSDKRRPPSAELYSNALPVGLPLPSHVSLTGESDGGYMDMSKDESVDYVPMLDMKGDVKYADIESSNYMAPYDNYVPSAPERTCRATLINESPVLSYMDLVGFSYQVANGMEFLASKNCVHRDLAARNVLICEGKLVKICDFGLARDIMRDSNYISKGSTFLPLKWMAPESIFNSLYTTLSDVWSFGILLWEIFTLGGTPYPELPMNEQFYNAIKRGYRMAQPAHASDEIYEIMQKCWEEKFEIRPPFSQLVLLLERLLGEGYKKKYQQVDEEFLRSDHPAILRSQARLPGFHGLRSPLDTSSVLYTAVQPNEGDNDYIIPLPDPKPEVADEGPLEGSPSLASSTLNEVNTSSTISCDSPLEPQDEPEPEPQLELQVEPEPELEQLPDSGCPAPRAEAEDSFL
Chain of Platelet-derived growth factor receptor alpha (P16234 whole entry): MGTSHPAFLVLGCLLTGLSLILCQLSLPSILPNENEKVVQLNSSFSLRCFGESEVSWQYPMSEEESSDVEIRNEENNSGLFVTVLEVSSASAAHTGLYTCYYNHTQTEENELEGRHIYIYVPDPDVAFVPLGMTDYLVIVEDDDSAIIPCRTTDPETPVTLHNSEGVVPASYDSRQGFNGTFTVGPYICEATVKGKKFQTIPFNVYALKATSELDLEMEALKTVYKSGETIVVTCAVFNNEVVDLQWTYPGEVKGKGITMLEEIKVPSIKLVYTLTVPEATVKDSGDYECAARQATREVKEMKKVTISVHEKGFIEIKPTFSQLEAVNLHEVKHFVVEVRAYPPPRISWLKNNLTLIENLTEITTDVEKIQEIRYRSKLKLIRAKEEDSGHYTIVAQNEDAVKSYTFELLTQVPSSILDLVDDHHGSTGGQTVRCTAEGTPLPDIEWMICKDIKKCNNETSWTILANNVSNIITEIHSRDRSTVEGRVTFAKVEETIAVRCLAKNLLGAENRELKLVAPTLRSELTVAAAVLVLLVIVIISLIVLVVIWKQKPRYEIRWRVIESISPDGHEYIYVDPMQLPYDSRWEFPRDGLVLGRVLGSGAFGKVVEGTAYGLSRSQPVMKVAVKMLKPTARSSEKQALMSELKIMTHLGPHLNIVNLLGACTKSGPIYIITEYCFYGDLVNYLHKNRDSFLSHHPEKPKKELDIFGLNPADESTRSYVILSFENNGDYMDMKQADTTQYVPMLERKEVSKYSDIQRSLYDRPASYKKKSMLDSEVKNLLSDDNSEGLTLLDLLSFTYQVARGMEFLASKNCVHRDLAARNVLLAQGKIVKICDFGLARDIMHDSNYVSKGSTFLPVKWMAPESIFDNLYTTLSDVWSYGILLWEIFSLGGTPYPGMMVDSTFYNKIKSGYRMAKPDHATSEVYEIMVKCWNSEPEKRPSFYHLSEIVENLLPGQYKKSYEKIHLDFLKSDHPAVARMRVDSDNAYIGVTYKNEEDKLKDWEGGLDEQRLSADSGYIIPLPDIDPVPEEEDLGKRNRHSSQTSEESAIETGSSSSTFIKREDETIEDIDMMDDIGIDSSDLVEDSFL

For `CN1CCN(c2ccc(Nc3ncc(Cl)c(Nc4ccc5cn[nH]c5c4)n3)cc2)CC1`, in series [1], the inhibition was determined as 95.8%. For the compound `Cc1ccc(NC(=O)c2ccc(CN3CCN(C)CC3)cc2)cc1Nc1nccc(-c2cccnc2)n1` [IMATINIB], in series [2], the Activity entry is “Toxic”. Turning to `CCOC(=O)c1cnc(Nc2ccc(N3CCN(C)CC3)cc2)nc1Nc1ccc2cn[nH]c2c1`, the inhibition in series [1] was determined as 30.7%.

For `CCN1CCN(c2ccc(Nc3ncc(C)c(Nc4ccc5cn[nH]c5c4)n3)cc2)CC1`, the pIC50 with U2OS is 6.26; in the series with MG-63 it was 6.02; in the series on HOS-TE85, 5.85; in the series with SAOS-2, 6.02; in series [3] it was 8.12. With `Cc1cc(Nc2ccc3cn[nH]c3c2)nc(Nc2ccc(N3CCN(C)CC3)cc2)n1`, the inhibition in series [1] amounted to 7.2%.

Take `Cc1cnc(Nc2ccc(N3CCN(C)CC3)cc2)nc1Nc1ccc2c(ccn2C)c1`: the inhibition in series [1] amounted to 79.2%. Regarding `COc1cc(Nc2ncc(C)c(Nc3ccc4cn[nH]c4c3)n2)ccc1N1CCN(C)CC1`, the pIC50 was 6.12 in the series on U2OS; 6.08 in the series on MG-63; 5.87 in the series on HOS-TE85; 6.14 in the series with SAOS-2; 8.34 in series [3]. In the case of `CN1CCN(c2ccc(Nc3nc(Nc4ccc5cn[nH]c5c4)c4sccc4n3)cc2)CC1`, the inhibition in series [1] was found to be 21.2%. `Cc1cnc(Nc2ccc(N3CCN(C)CC3)cc2)nc1Nc1ccc2nccnc2c1`: the inhibition in series [1] came out at 74.1%. Regarding `Cc1cnc(Nc2ccc(C(=O)N3CCN(C)CC3)cc2)nc1Nc1ccc2cn[nH]c2c1`, the pIC50 in series [3] is 7.32. As for `CN1CCN(c2ccc(Nc3nc(Nc4ccc5cn[nH]c5c4)cc(C(F)(F)F)n3)cc2)CC1`, the inhibition in series [1] came out at 3.5%.

Take `Cc1cnc(Nc2ccc(N3CCN(C)CC3)cc2)nc1Nc1ccc2c(c1)CCC2`: in series [1], the inhibition is 88.9%. In the case of `Cc1cnc(Nc2ccc(N3CCOCC3)cc2)nc1Nc1ccc2cn[nH]c2c1`, the pIC50 in series [3] is 8.16. For the compound `Cc1cnc(Nc2ccc(N3CCN(C)CC3)cc2)nc1Nc1ccc2[nH]ccc2c1`, the inhibition stood at 78.6% in series [1] and 57.3% in series [4]. Take `CN1CCN(c2ccc(Nc3ncc(F)c(Nc4ccc5cn[nH]c5c4)n3)cc2)CC1`: in series [1], the inhibition is 94.4%. As for `Cc1cnc(Nc2ccc(N3CCC(N4CCN(C)CC4)CC3)cc2)nc1Nc1ccc2cn[nH]c2c1`, the pIC50 in series [3] is 7.78. As for `COc1cc(N2CCN(C)CC2)ccc1Nc1ncc(C)c(Nc2ccc3cn[nH]c3c2)n1`, the pIC50 in series [3] was 7.36.
